Measured values reported in article PMC12064818, “A general assay platform to study protein pharmacology using ligand-dependent structural dynamics” (Nature Communications, 2025).

Key:
[1] = biological target: iPGM; details: surface plasmon resonance kinetics; cited from earlier work
[2] = biological target: B. malayi iPGM-C-HiBiT (Brugia malayi, UniProt Q4VWF8); test: iPGM coupled-enzyme assay, B. malayi iPGM-C-HiBiT; type: biochemical; parameters: cDNA, containing Ala2-Glu515 and the 6xHis tag; His6 (C); made in house; host or cells: E. coli; details: B. malayi iPGM-C-HiBiT Std 5 nM; ligand […] Std
Chain of B. malayi iPGM-C-HiBiT (Q4VWF8 2-515): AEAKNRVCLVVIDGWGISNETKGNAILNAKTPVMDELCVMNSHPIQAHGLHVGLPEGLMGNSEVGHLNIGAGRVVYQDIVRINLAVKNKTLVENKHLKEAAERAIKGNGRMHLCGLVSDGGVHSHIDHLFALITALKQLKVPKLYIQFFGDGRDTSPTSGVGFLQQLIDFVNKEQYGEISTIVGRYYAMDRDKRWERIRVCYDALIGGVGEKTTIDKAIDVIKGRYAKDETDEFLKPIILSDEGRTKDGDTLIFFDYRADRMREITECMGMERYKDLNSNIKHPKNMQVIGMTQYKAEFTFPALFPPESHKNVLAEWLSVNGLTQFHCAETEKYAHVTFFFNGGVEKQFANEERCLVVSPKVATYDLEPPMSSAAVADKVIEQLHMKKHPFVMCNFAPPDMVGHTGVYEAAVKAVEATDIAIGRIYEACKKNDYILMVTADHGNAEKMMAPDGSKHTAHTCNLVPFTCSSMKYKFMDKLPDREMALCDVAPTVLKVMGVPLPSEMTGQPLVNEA
Experimental: The enzyme activity of C. elegans or B. malayi iPGM-C-HiBiT was measured using the functional coupled-enzyme luminescence end-point output assay for iPGM as previously described[16],[41],[68]. Briefly, the indicated concentration of 4 μL of iPGM-C-HiBiT was dispensed into 1536-well white, high solid base, medium bind plates in a pH 8.0 iPGM assay buffer (30 mM Tris-HCl, 5 mM magnesium sulfate, 20 mM potassium chloride and 0.08% BSA) with the BioRaptr 2. Compounds and controls were added to each plate with a pintool as described in Supplementary Data 8. Enzymes were incubated with peptide for > 20 min at ambient temperature, protected from light. […] Enzyme was at 5 nM final concentration for the standard assay with an estimated KM 3-phosphoglycerate (3PG) substrate concentration of 400 μM. Plates were incubated at ambient temperature for 10 min, protected from light, then measured by a ViewLux plate reader. […] See Supplementary Table 6 for additional details.
Supplementary Table 6. Protocol for Co- factor independent phosphoglycerate mutase (iPGM) coupled-enzyme assay
Supplementary Table 6: Protocol for Co-factor independent phosphoglycerate m utase (iPGM) coupled- enzym e assay […]
No enzym e control (colum n 1) and enzym e solutions (5 nM Bm iPGM-C-HiBiT or Ce iPGM-1 Reagent 4 µLC-HiBiT dialyzed against Zn/Mn final assay concentration) in PGM enzym e buffer; white/solid bottom , m edium bind, high base plates (Greiner), dispensed with BioRaptr 2 […]
in 8-pt 1:6 titration series in duplicate); com pounds transferred to respective colum ns with […]
Test com pounds: m acrocyclic peptides at 5 m M stock concentration in 16-pt, 1:3 titration […]
transferred to respective colum ns with Pintool
3 Incubation 20 m inIncubate enzym e + com pounds at am bient tem p for 20 m in, protected from light 4 Reagent 2 µLSubstrate solution; 0.4 m M final concentration 3PG in coupled-enzym e substrate buffer; dispensed with BioRaptr 2
5 Incubation 5 m inAm bient tem perature, protected from light
6 Reagent 4 µLKinase-Glo Plus reagent (Prom ega) prepared according to m anufacturer’s protocol;
7 Incubation 10 m inRoom tem perature, protected from light
8 Detector ViewLuxRead plate lum inescence (Exposure = 1 sec; Gain = Medium; Speed = Slow; Binning = 2X) […]
in 20% glycerol); Bm iPGM-C-HiBiT enzym e 10 µM stock solution in 20% glycerol.
Coupled-enzym e substrate solution: 30 m M Tris-HCl, pH 8.0; 5 m M MgSO4; 20 m M KCl; 9 m M ADP (3 m M final); 0.1 4 units/µl enolase (Millipore Sigm a, Cat# E6126); 0.15 units/µl pyruvate kinase (from rabbit m uscle, Millipore Sigm a, Cat #

SMILES: CC(C)C[C@H](NC(=O)[C@H](Cc1ccc(O)cc1)NC(=O)[C@@H]1CSCC(=O)N[C@H](Cc2ccc(O)cc2)C(=O)N[C@@H](CC(=O)O)C(=O)N[C@@H](Cc2ccc(O)cc2)C(=O)N2CCC[C@H]2C(=O)NCC(=O)N[C@@H](CC(=O)O)C(=O)N[C@@H](Cc2ccc(O)cc2)C(=O)N1)C(=O)N[C@@H](Cc1ccc(O)cc1)C(=O)NCC(=O)N[C@H](C(=O)N[C@@H](CS)C(=O)NCC(N)=O)[C@@H](C)O [Ce-2]
- Kd [1]: 0.038 nM
- Standard assay statistics Ave RLU [2]: 4115.8 RLU
- Standard assay statistics S:B [2]: 1.7
- Standard assay statistics S:N [2]: -6.9
- Standard assay statistics Z’ [2]: 0.521
